Results taken from ChEMBL document CHEMBL5113459 (Bioorg Med Chem Lett, 2022).

Key:
Type in all cases: functional, cell-based
PC-3 = test: Antiproliferative activity against human AR-negative PC-3 cells assessed as cell growth inhibition incubated for 3 days by WST-1 assay; details: PC-3, 72 h
CWR22R = test: Antiproliferative activity against human AR-positive 22Rv1 cells assessed as cell growth inhibition incubated for 3 days by WST-1 assay; details: 22Rv1, 72 h
LNCaP = test: Antiproliferative activity against human AR-positive LNCaP cells assessed as cell growth inhibition incubated for 3 days by WST-1 assay; details: 72 h
DU-145 = test: Antiproliferative activity against human AR-negative DU-145 cells assessed as cell growth inhibition incubated for 3 days by WST-1 assay; details: DU-145, 72 h

| SMILES | IC50 (PC-3) [nM] | IC50 (CWR22R) [µM] | IC50 (LNCaP) [nM] | IC50 (DU-145) [µM] |
| --- | --- | --- | --- | --- |
| Cc1ncsc1-c1ccc(CNC(=O)[C@@H]2C[C@@H](O)CN2C(=O)[C@@H](NC(=O)COCCOCCOc2ccc(Cl)cc2C(=O)Nc2ccc([N+](=O)[O-])cc2Cl)C(C)(C)C)cc1 | 2340 | 4.94 | 2370 | > 10 |
| C#CCCOc1ccc(Cl)cc1C(=O)Nc1ccc([N+](=O)[O-])cc1Cl | > 10000 | > 10 | > 10000 | > 10 |
| O=C(O)COCCOCCOc1ccc(Cl)cc1C(=O)Nc1ccc([N+](=O)[O-])cc1Cl | > 10000 | > 10 | > 10000 | > 10 |
| CC(C)(C)OC(=O)COCCOCCN=[N+]=[N-] | > 10000 | > 10 | > 10000 | > 10 |
| CC(C)(C)OC(=O)COCCOCCn1cc(CCOc2ccc(Cl)cc2C(=O)Nc2ccc([N+](=O)[O-])cc2Cl)nn1 | > 10000 | > 10 | 3080 | > 10 |
| Cc1ncsc1-c1ccc(CNC(=O)[C@@H]2C[C@@H](O)CN2C(=O)[C@@H](NC(=O)COCCOCCn2cc(CCOc3ccc(Cl)cc3C(=O)Nc3ccc([N+](=O)[O-])cc3Cl)nn2)C(C)(C)C)cc1 | 2790 | 6.88 | 1040 | > 10 |
| O=C(O)COCCOCCn1cc(CCOc2ccc(Cl)cc2C(=O)Nc2ccc([N+](=O)[O-])cc2Cl)nn1 | > 10000 | > 10 | > 10000 | > 10 |
| O=C(Nc1ccc([N+](=O)[O-])cc1Cl)c1cc(Cl)ccc1O [NICLOSAMIDE] | 1920 | 1.61 | 800 | 3.65 |
